Measurements as given in ChEMBL document CHEMBL5500363, “Discovery of novel ocotillol derivatives modulating glucocorticoid receptor/NF-κB signaling for the treatment of sepsis” (Eur J Med Chem, 2024).
Calls of active or inactive are those of the source. The calls are words filed in the database; no cut-off is given here.

Tests used:
RAW264.7 [1] = experiment: Downregulation of glucocorticoid receptor in mouse RAW264.7 cells at 1 uM incubated for 24 hrs by Western blot analysis; type: functional, cell-based
RAW264.7 [2] = experiment: Downregulation of glucocorticoid receptor in LPS-treated mouse RAW264.7 cells at 1 uM incubated for 24 hrs by qRT-PCR analysis; type: functional, cell-based
RAW264.7 [3] = experiment: Cytotoxicity against mouse RAW264.7 cells assessed as cell viability at 40 uM incubated for 24 hrs by MTT assay; type: toxicity, cell-based; conditions: raw264.7, 24 h
RAW264.7 [4] = experiment: Effect on KLF9 mRNA expression in mouse RAW264.7 cells by qPCR analysis; type: functional, cell-based
Mus musculus [5] = experiment: Anti-septic activity in LPS-induced sepsis BALB/c mouse assessed as reduction in serum AST level at 30 mg/kg administered via gavage for 3 days followed by LPS treatment for 6 hrs; type: functional, organism-based; conditions: time 78.0 hrs
Mus musculus [6] = experiment: Anti-septic activity in LPS-induced sepsis BALB/c mouse assessed as reduction in serum ALT level at 30 mg/kg administered via gavage for 3 days followed by LPS treatment for 6 hrs; type: functional, organism-based; conditions: time 78.0 hrs
RAW264.7 [7] = experiment: Inhibition of LPS-induced NO production in mouse RAW264.7 cells at 20 uM pretreated for 2 hrs followed by LPS stimulation for 24 hrs by Griess assay relative to control; type: functional; conditions: time 26 hrs
RAW264.7 [8] = experiment: Anti-inflammatory activity in LPS-treated mouse RAW264.7 cells assessed as reversal of nuclear translocation of p65 at 20 uM pretreated for 2 hrs followed by LPS stimulation for 24 hrs by immunofluorescence analysis; type: functional, cell-based; conditions: time 26.0 hrs
RAW264.7 [9] = experiment: Inhibition of LPS-induced NO production in mouse RAW264.7 cells at 10 uM pretreated for 2 hrs followed by LPS stimulation for 24 hrs by Griess assay relative to control; type: functional; conditions: time 26 hrs
[10] = biological target: T1, Glucocorticoid receptor (Mus musculus) (UniProt P06537); experiment: Stabilization of glucocorticoid receptor in mouse RAW264.7 cells assessed as blockade of CHX-induced protein degradation at 20 uM incubated for 24 hrs by Western blot analysis; type: cell-based
T1 sequence (whole entry): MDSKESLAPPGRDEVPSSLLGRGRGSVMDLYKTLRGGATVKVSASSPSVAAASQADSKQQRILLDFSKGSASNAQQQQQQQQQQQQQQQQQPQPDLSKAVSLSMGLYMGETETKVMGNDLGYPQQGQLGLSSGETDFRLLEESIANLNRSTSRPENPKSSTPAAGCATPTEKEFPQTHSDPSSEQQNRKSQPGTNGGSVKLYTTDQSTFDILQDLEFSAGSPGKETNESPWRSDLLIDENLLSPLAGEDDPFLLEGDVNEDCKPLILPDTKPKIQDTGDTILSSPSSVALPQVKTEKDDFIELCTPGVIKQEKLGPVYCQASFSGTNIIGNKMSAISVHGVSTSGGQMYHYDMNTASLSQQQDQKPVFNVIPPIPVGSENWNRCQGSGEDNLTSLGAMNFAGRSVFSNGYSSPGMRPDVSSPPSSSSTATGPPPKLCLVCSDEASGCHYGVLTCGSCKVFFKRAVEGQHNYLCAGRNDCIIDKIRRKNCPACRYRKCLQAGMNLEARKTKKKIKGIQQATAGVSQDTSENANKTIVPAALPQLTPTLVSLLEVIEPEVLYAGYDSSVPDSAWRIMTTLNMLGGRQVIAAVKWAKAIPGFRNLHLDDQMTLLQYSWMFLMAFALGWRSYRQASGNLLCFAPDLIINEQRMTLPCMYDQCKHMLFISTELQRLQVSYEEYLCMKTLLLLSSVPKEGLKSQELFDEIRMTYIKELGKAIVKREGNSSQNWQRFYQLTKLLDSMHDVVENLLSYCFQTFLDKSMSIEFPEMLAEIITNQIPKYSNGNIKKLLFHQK

RAW264.7 [11] = experiment: Inhibition of LPS-induced NO production in mouse RAW264.7 cells pretreated for 2 hrs followed by LPS stimulation for 24 hrs by Griess assay; type: functional, cell-based
RAW264.7 [12] = experiment: Inhibition of LPS-induced NO production in mouse RAW264.7 cells at 5 uM pretreated for 2 hrs followed by LPS stimulation for 24 hrs by Griess assay relative to control; type: functional; conditions: time 26 hrs
Mus musculus [13] = experiment: Anti-septic activity in LPS-induced sepsis BALB/c mouse assessed as reduction in serum CRP level at 30 mg/kg administered via gavage for 3 days followed by LPS treatment for 6 hrs; type: functional, organism-based; conditions: time 78.0 hrs
Mus musculus [14] = experiment: Downregulation of p65 phosphorylation in liver of LPS-induced sepsis BALB/c mouse model at 7.5 to 30 mg/kg administered via gavage for 3 days followed by LPS treatment for 6 hrs by Western blot analysis; type: functional, organism-based; conditions: dose 7.5-30 mg/kg, time 78.0 hrs
RAW264.7 [15] = experiment: Anti-inflammatory activity in mouse RAW264.7 cells assessed as decrease in LPS-induced I-kappaB-alpha phosphorylation at 20 uM pretreated for 2 hrs followed by LPS stimulation for 24 hrs by Western blot analysis; type: functional, cell-based; conditions: time 26.0 hrs
Mus musculus [16] = experiment: Downregulation of I-kappa-B-alpha phosphorylation in liver of LPS-induced sepsis BALB/c mouse model at 7.5 to 30 mg/kg administered via gavage for 3 days followed by LPS treatment for 6 hrs by Western blot analysis; type: functional, organism-based; conditions: dose 7.5-30 mg/kg, time 78.0 hrs
RAW264.7 [17] = experiment: Anti-inflammatory activity in mouse RAW264.7 cells assessed as decrease in LPS-induced p65 phosphorylation at 20 uM pretreated for 2 hrs followed by LPS stimulation for 24 hrs by Western blot analysis; type: functional, cell-based; conditions: time 26.0 hrs

C[C@@H]1C[C@H]2[C@@H]3CCC4=CC(=O)C=C[C@]4(C)[C@@]3(F)[C@@H](O)C[C@]2(C)[C@@]1(O)C(=O)CO
Activity (RAW264.7 [1]): Active | Activity (RAW264.7 [2]): Active

Cc1nnc(NC(=O)CCC(=O)O[C@H]2CC[C@]3(C)[C@H]4C[C@@H](O)[C@@H]5C([C@]6(C)CC[C@H](C(C)(C)O)O6)CC[C@@]5(C)[C@]4(C)CC[C@H]3C2(C)C)s1 (stereo partly specified)
Activity (RAW264.7 [3]): Toxic

CC(C)(C)OC(=O)NCCCC(=O)Nc1nc2c(s1)C[C@]1(C)[C@H]3C[C@@H](O)[C@@H]4C([C@]5(C)CC[C@H](C(C)(C)O)O5)CC[C@@]4(C)[C@]3(C)CC[C@H]1C2(C)C (stereo partly specified)
Activity (RAW264.7 [3]): Toxic

CC(=O)Nc1nc2c(s1)C[C@]1(C)[C@H]3C[C@@H](O)[C@@H]4C([C@]5(C)CC[C@@H](C(C)(C)O)O5)CC[C@@]4(C)[C@]3(C)CC[C@H]1C2(C)C (stereo partly specified)
Activity (RAW264.7 [3]): Toxic

CC(C)(C)OC(=O)NCCCC(=O)Nc1nc2c(s1)C[C@]1(C)[C@H]3C[C@@H](O)[C@@H]4C([C@]5(C)CC[C@@H](C(C)(C)O)O5)CC[C@@]4(C)[C@]3(C)CC[C@H]1C2(C)C (stereo partly specified)
Activity (RAW264.7 [3]): Toxic

CC(C)(O)[C@H]1CC[C@@](C)(C2CC[C@]3(C)[C@@H]2[C@H](O)C[C@@H]2[C@@]4(C)CC[C@H](OC(=O)CCC(=O)Nc5nnc(Br)s5)C(C)(C)[C@@H]4CC[C@]23C)O1 (stereo partly specified)
Activity (RAW264.7 [3]): Toxic

CC(C)(C)OC(=O)NCCCCCCCC(=O)Nc1nc2c(s1)C[C@]1(C)[C@H]3C[C@@H](O)[C@@H]4C([C@]5(C)CC[C@H](C(C)(C)O)O5)CC[C@@]4(C)[C@]3(C)CC[C@H]1C2(C)C (stereo partly specified)
Activity (RAW264.7 [3]): Toxic

Cc1nnc(NC(=O)CCC(=O)O[C@H]2CC[C@]3(C)[C@H]4C[C@@H](O)[C@@H]5C([C@]6(C)CC[C@@H](C(C)(C)O)O6)CC[C@@]5(C)[C@]4(C)CC[C@H]3C2(C)C)s1 (stereo partly specified)
Activity (RAW264.7 [3]): Toxic

CC(C)(O)[C@H]1CC[C@@](C)(C2CC[C@]3(C)[C@@H]2[C@H](O)C[C@@H]2[C@@]4(C)Cc5sc(NC(=O)C(F)(F)F)nc5C(C)(C)[C@@H]4CC[C@]23C)O1 (stereo partly specified)
Activity (RAW264.7 [3]): Toxic

CC(C)(C)OC(=O)NCCCCCC(=O)Nc1nc2c(s1)C[C@]1(C)[C@H]3C[C@@H](O)[C@@H]4C([C@]5(C)CC[C@H](C(C)(C)O)O5)CC[C@@]4(C)[C@]3(C)CC[C@H]1C2(C)C (stereo partly specified)
Activity (RAW264.7 [3]): Toxic

CC(=O)Nc1nc2c(s1)C[C@]1(C)[C@H]3C[C@@H](O)[C@@H]4C([C@]5(C)CC[C@H](C(C)(C)O)O5)CC[C@@]4(C)[C@]3(C)CC[C@H]1C2(C)C (stereo partly specified)
Activity (RAW264.7 [3]): Toxic

CC(C)=CCC[C@@](C)(O)C1CC[C@]2(C)[C@@H]1[C@H](O)C[C@@H]1[C@@]3(C)CC[C@H](O)C(C)(C)[C@@H]3CC[C@]12C (stereo partly specified)
Activity (RAW264.7 [4]): inactive | Activity (Mus musculus [5]): Active | Activity (Mus musculus [6]): Active | inhibition at 20 µM (RAW264.7 [7]): 31.4% | Activity (RAW264.7 [8]): Active | inhibition at 10 µM (RAW264.7 [9]): 11.2% | Activity [10]: inactive | IC50 (RAW264.7 [11]): 34.4 µM | inhibition at 5 µM (RAW264.7 [12]): 7.09% | Activity (Mus musculus [13]): Active | Activity (Mus musculus [14]): inactive | Activity (RAW264.7 [15]): Active | Activity (Mus musculus [16]): inactive | Activity (RAW264.7 [17]): Active
